From patent US20210278408A1, “METHODS OF TREATMENT OF CANCER WITH SUBSTITUTED PYRROLE AND PYRAZOLE COMPOUNDS AND DIAGNOSIS OF CANCERS SUSCEPTIBLE TO TREATMENT WITH SUBSTITUTED PYRROLE AND PYRAZOLE COMPOUNDS” (Bantam Pharmaceutical, LLC, priority 2018, published 2021)
Read-outs that look alike come from different tables or passages of the source.

Tests used:
[1] = test system: ATF4; assay: ATF4 induction by immunofluorescence in HCT-116 cells transfected with tGFP or FAM210B-GFP; assay type: cell-based, human; set-up: compound mediated ATF4 induction versus FAM210B expression: dose or concentration left out as unconfirmed
Description: FIG. 17 is a set of fluorescence micrographs of HCT-116 cells transfected with a vector expressing tGFP (left) or FAM210B-GFP (right).
FIG. 18 is a graph of ATF4 expression versus GFP expression for HCT-116 cells transfected with a vector expressing tGFP or FAM210B-GFP.
HCT-116 cells were transfected with a vector expressing tGFP or FAM210B-GFP. […] Following 4 hrs of drug treatment the cells were fixed, permeabilized, and ATF4 levels determined by immunofluorescence (IF), and FAM210B levels were determined by detection of GFP. Cells were binned based on median ATF4 protein expression and ranked relative to level of FAM210B-tGFP.

[2] = test system: BJAB (malignant human B-cell-line); assay: BJAB cell proliferation; assay type: cell-based; conditions: BJAB (malignant human B-cell-line) cell proliferation, EC50; read-out: BJAB
Description: In certain embodiments, the therapeutic compound is one of the compounds of the compound table below. […] In certain embodiments, the therapeutic compound is a compound having an activity as “A,” “B” or “C” in the table below. In certain embodiments, the therapeutic compound is a compound having an activity as “A” or “B” in the table below. In certain embodiments, the therapeutic compound is a compound having an activity as “A” in the table below.
In certain embodiments, the therapeutic compound is one of the compounds of the compound table below, optionally provided as a pharmaceutically-acceptable salt or N-oxide, and/or a solvate or hydrate. […] In certain embodiments, the therapeutic compound is a compound having an activity as “A,” “B” or “C” in the table below. In certain embodiments, the therapeutic compound is a compound having an activity as “A” or “B” in the table below. In certain embodiments, the therapeutic compound is a compound having an activity as “A” in the table below.

Row | Compound | EC50 [2] [µM] | further results
1 | Cc1nn(-c2nc(C3=CCC(C(F)(F)F)CC3)c(SC(C)C)s2)c(C(=O)O)c1-c1cccc(F)c1 (stereo not drawn) [Compound B5, 4-(3-fluorophenyl)-1-(5-(isopropylthio)-4-(4-(trifluoromethyl)cyclohex-1-en-1-yl)thiazol-2-yl)-3-methyl-1H-pyrazole-5-carboxylic acid] | < 1 | compound mediated ATF4 induction versus FAM210B expression ([1]; HCT-116 transfected with tGFP or FAM210B-GFP, 4 hrs, immunofluorescence): induction of ATF4 is inhibited by FAM210B expression in HCT-116 cells; effect of PERK inhibitors on compound mediated induction of ATF4 ([1]; follow-up studies): no effect
2 | COCCNC(=O)c1ccc(-c2sc(-n3nc(C)c(-c4cccc(F)c4)c3C(=O)O)nc2-c2ccc(C(F)(F)F)cc2)cc1 [Compound B49, 4-(3-fluorophenyl)-1-(5-(4-((2-methoxyethyl)carbamoyl)phenyl)-4-(4-(trifluoromethyl)phenyl)thiazol-2-yl)-3-methyl-1H-pyrazole-5-carboxylic acid] | > 20 | –
3 | COCCN(C)C(=O)c1ccc(-c2sc(-n3nc(C)c(-c4cccc(F)c4)c3C(=O)O)nc2-c2ccc(C(F)(F)F)cc2)cc1 [Compound B50, 4-(3-fluorophenyl)-1-(5-(4-((2-methoxyethyl)(methyl)carbamoyl)phenyl)-4-(4-(trifluoromethyl)phenyl)thiazol-2-yl)-3-methyl-1H-pyrazole-5-carboxylic acid] | > 20 | –
4 | COCC(=O)Nc1ccc(-c2sc(-n3nc(C)c(-c4cccc(F)c4)c3C(=O)O)nc2-c2ccc(C(F)(F)F)cc2)cc1 [Compound B51, 4-(3-fluorophenyl)-1-(5-(4-(2-methoxyacetamido)phenyl)-4-(4-(trifluoromethyl)phenyl)thiazol-2-yl)-3-methyl-1H-pyrazole-5-carboxylic acid] | 10 to 25 | –
5 | COCCOCC(=O)Nc1ccc(-c2sc(-n3nc(C)c(-c4cccc(F)c4)c3C(=O)O)nc2-c2ccc(C(F)(F)F)cc2)cc1 [Compound B52, 4-(3-fluorophenyl)-1-(5-(4-(2-(2-methoxyethoxy)acetamido)phenyl)-4-(4-(trifluoromethyl)phenyl)thiazol-2-yl)-3-methyl-1H-pyrazole-5-carboxylic acid] | 10 to 25 | –
6 | COCCNC(=O)CCc1sc(-n2nc(C)c(-c3cccc(F)c3)c2C(=O)O)nc1-c1ccc(C(F)(F)F)cc1 [Compound B53, 4-(3-fluorophenyl)-1-(5-(3-((2-methoxyethyl)amino)-3-oxopropyl)-4-(4-(trifluoromethyl)phenyl)thiazol-2-yl)-3-methyl-1H-pyrazole-5-carboxylic acid] | > 20 | –
7 | COCCN(C)C(=O)CCc1sc(-n2nc(C)c(-c3cccc(F)c3)c2C(=O)O)nc1-c1ccc(C(F)(F)F)cc1 [Compound B54, 4-(3-fluorophenyl)-1-(5-(3-((2-methoxyethyl)(methyl)amino)-3-oxopropyl)-4-(4-(trifluoromethyl)phenyl)thiazol-2-yl)-3-methyl-1H-pyrazole-5-carboxylic acid] | > 20 | –
8 | COCC(=O)N(C)c1ccc(-c2sc(-n3nc(C)c(-c4cccc(F)c4)c3C(=O)O)nc2-c2ccc(C(F)(F)F)cc2)cc1 [Compound B55, 4-(3-fluorophenyl)-1-(5-(4-(2-methoxy-N-methylacetamido)phenyl)-4-(4-(trifluoromethyl)phenyl)thiazol-2-yl)-3-methyl-1H-pyrazole-5-carboxylic acid] | > 20 | –
9 | COCCOCC(=O)N(C)c1ccc(-c2sc(-n3nc(C)c(-c4cccc(F)c4)c3C(=O)O)nc2-c2ccc(C(F)(F)F)cc2)cc1 [Compound B56, 4-(3-fluorophenyl)-1-(5-(4-(2-(2-methoxyethoxy)-N-methylacetamido)phenyl)-4-(4-(trifluoromethyl)phenyl)thiazol-2-yl)-3-methyl-1H-pyrazole-5-carboxylic acid] | > 20 | –
10 | COCc1sc(-n2nc(C)c(-c3cccc(F)c3)c2C(=O)O)nc1-c1ccc(C(F)(F)F)cc1 [Compound B57, 4-(3-fluorophenyl)-1-(5-(methoxymethyl)-4-(4-(trifluoromethyl)phenyl)thiazol-2-yl)-3-methyl-1H-pyrazole-5-carboxylic acid] | 5 to 10 | –
11 | CCOCCOCCOc1ccc(-c2sc(-n3nc(C)c(-c4cccc(F)c4)c3C(=O)O)nc2-c2ccc(C(F)(F)F)cc2)cc1 [Compound B58, 1-(5-(4-(2-(2-ethoxyethoxy)ethoxy)phenyl)-4-(4-(trifluoromethyl)phenyl)thiazol-2-yl)-4-(3-fluorophenyl)-3-methyl-1H-pyrazole-5-carboxylic acid] | 1 to 5 | –
12 | Cc1nn(-c2nc(-c3ccc(C(F)(F)F)cc3)c(-c3cccc(F)c3)s2)c(C(=O)O)c1-c1cccc(F)c1 [Compound B59, 4-(3-fluorophenyl)-1-(5-(3-fluorophenyl)-4-(4-(trifluoromethyl)phenyl)thiazol-2-yl)-3-methyl-1H-pyrazole-5-carboxylic acid] | < 1 | –
13 | Cc1nn(-c2nc(-c3ccc(C(F)(F)F)cc3)c(CO)s2)c(C(=O)O)c1-c1cccc(F)c1 [Compound B60, 4-(3-fluorophenyl)-1-(5-(hydroxymethyl)-4-(4-(trifluoromethyl)phenyl)thiazol-2-yl)-3-methyl-1H-pyrazole-5-carboxylic acid] | > 20 | –
14 | Cc1nn(-c2nc(N3CCC(C(F)(F)F)CC3)c(-c3ccc(C(F)(F)F)cc3)s2)c(C(=O)O)c1-c1cccc(F)c1 [Compound B61, 4-(3-fluorophenyl)-3-methyl-1-(5-(4-(trifluoromethyl)phenyl)-4-(4-(trifluoromethyl)piperidin-1-yl)thiazol-2-yl)-1H-pyrazole-5-carboxylic acid] | < 1 | –
15 | Cc1nn(-c2nc(-c3cccc(F)c3)c(-c3ccc(C(F)(F)F)cc3)s2)c(C(=O)O)c1-c1cccc(F)c1 [Compound B62, 4-(3-fluorophenyl)-1-(4-(3-fluorophenyl)-5-(4-(trifluoromethyl)phenyl)thiazol-2-yl)-3-methyl-1H-pyrazole-5-carboxylic acid] | 5 to 10 | –
16 | Cc1nn(-c2nc(-c3ccc(C(F)(F)F)cc3)c(C(C)O)s2)c(C(=O)O)c1-c1cccc(F)c1 (stereo not drawn) [Compound B63, 4-(3-fluorophenyl)-1-(5-(1-hydroxyethyl)-4-(4-(trifluoromethyl)phenyl)thiazol-2-yl)-3-methyl-1H-pyrazole-5-carboxylic acid] | > 20 | –
17 | Cc1nn(-c2nc(-c3ccc(C(F)(F)F)cc3)c(CCO)s2)c(C(=O)O)c1-c1cccc(F)c1 [Compound B64, 4-(3-fluorophenyl)-1-(5-(2-hydroxyethyl)-4-(4-(trifluoromethyl)phenyl)thiazol-2-yl)-3-methyl-1H-pyrazole-5-carboxylic acid] | > 20 | –
18 | COCCOc1ccc(-c2sc(-n3nc(C)c(-c4cccc(F)c4)c3C(=O)O)nc2-c2ccc(C(F)(F)F)cc2)cc1 [Compound B65, 4-(3-fluorophenyl)-1-(5-(4-(2-methoxyethoxy)phenyl)-4-(4-(trifluoromethyl)phenyl)thiazol-2-yl)-3-methyl-1H-pyrazole-5-carboxylic acid] | 1 to 5 | –
19 | COC(C)c1sc(-n2nc(C)c(-c3cccc(F)c3)c2C(=O)O)nc1-c1ccc(C(F)(F)F)cc1 (stereo not drawn) [Compound B66, 4-(3-fluorophenyl)-1-(5-(1-methoxyethyl)-4-(4-(trifluoromethyl)phenyl)thiazol-2-yl)-3-methyl-1H-pyrazole-5-carboxylic acid] | 5 to 10 | –
20 | Cc1nn(-c2nc(N3CCC(C(C)C)CC3)c(SC(C)C)s2)c(C(=O)O)c1-c1cccc(F)c1 [Compound B67, 4-(3-fluorophenyl)-1-(4-(4-isopropylpiperidin-1-yl)-5-(isopropylthio)thiazol-2-yl)-3-methyl-1H-pyrazole-5-carboxylic acid] | 1 to 5 | –
21 | arsenite [reference compound] | – | effect of FAM210B expression on induction of ATF4 by the agent [1]: no effect
22 | tunicamycin [reference compound] | – | effect of FAM210B expression on induction of ATF4 by the agent ([1]; alternate pathways of ATF4 induction): no effect
